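Grown in 96-well plates, cells were treated for 48 hours with each compound at five concentrations. Insufficient inhibition: endpoint recorded as highest concentration tested. TGI: total growth inhibition.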
What was measured:
Assay in all cases: NCI-60 cell line screen, 48 h
SN12C renal = system: SN12C renal
HOP-62 NSCLC = system: HOP-62 NSCLC
SK-MEL-2 melanoma = system: SK-MEL-2 melanoma
OVCAR-5 ovarian = system: OVCAR-5 ovarian
NCI-H23 lung = system: NCI-H23 lung
CAKI-1 renal = system: CAKI-1 renal
M19-MEL melanoma = system: M19-MEL melanoma
HT29 colon = system: HT29 colon
K-562 leukemia = system: K-562 leukemia
SK-OV-3 ovarian = system: SK-OV-3 ovarian
SNB-78 CNS = system: SNB-78 CNS
LXFL 529 NSCLC = system: LXFL 529 NSCLC
HCC-2998 colon = system: HCC-2998 colon
TK-10 renal = system: TK-10 renal
ACHN renal = system: ACHN renal
RPMI-8226 leukemia = system: RPMI-8226 leukemia
U251 CNS = system: U251 CNS
KM12 colon = system: KM12 colon
SF-295 CNS = system: SF-295 CNS
DMS 273 small cell lung = system: DMS 273 small cell lung
OVCAR-4 ovarian = system: OVCAR-4 ovarian
SF-539 CNS = system: SF-539 CNS
NCI-H226 lung = system: NCI-H226 lung
HOP-18 NSCLC = system: HOP-18 NSCLC
DMS 114 small cell lung = system: DMS 114 small cell lung
SNB-75 CNS = system: SNB-75 CNS
HOP-92 NSCLC = system: HOP-92 NSCLC
A498 renal = system: A498 renal
MALME-3M melanoma = system: MALME-3M melanoma
M14 melanoma = system: M14 melanoma
CCRF-CEM leukemia = system: CCRF-CEM leukemia
OVCAR-8 ovarian = system: OVCAR-8 ovarian
HCT-15 colon = system: HCT-15 colon
OVCAR-3 ovarian = system: OVCAR-3 ovarian
786-0 renal = system: 786-0 renal
DLD-1 colon = system: DLD-1 colon
A549 NSCLC = system: A549 NSCLC
XF 498 CNS = system: XF 498 CNS
RXF 393 renal = system: RXF 393 renal
RXF-631 renal = system: RXF-631 renal
HL-60(TB) leukemia = system: HL-60(TB) leukemia
SNB-19 CNS = system: SNB-19 CNS
SK-MEL-5 melanoma = system: SK-MEL-5 melanoma
KM20L2 colon = system: KM20L2 colon
UACC-62 melanoma = system: UACC-62 melanoma
COLO 205 colon = system: COLO 205 colon
HCT-116 colon = system: HCT-116 colon
SK-MEL-28 melanoma = system: SK-MEL-28 melanoma
IGROV1 ovarian = system: IGROV1 ovarian
EKVX NSCLC = system: EKVX NSCLC
NCI-H460 lung = system: NCI-H460 lung
MOLT-4 leukemia = system: MOLT-4 leukemia
UACC-257 melanoma = system: UACC-257 melanoma
SW-620 colon = system: SW-620 colon

Measured: TGI

CC1=NN(c2ccccc2)C(=O)C1N=Nc1ccc(Br)c(C)c1 (centres undefined)
> 100 µM: all assays above

Source: PubChem BioAssay (NCI)
